Laboratory results reported in publication PMC3909100, “Biochemical, Stabilization and Crystallization Studies on a Molecular Chaperone (PaoD) Involved in the Maturation of Molybdoenzymes” (PLoS ONE, 2014).
Values joined by “and” are separate entries in the source; they are usually repeats but may differ in a detail not shown here. Equal values may be shown once.

B1: PaoD (natural protein, Escherichia coli, UniProt P77183 1-318, looked up)
chain: MSYPLFDKDEHWHKPEQAFLTDDHRTILRFAVEALMSGKGAVLVTLVEIRGGAARPLGAQMVVREDGRYCGFVSGGCVEAAAAFEALEMMGSGRDREIRYGEGSPWFDIVLPCGGGITLTLHKLRSAQPLLAVLNRLEQRKPVGLRYDPQAQSLVCLPTQTRTGWNLNGFEVGFRPCVRLMIYGRSLEAQATASLAAATGYDSHIFDLFPASASAQIDTDTAVILLCHDLNRELPVLQAAREAKPFYLGALGSYRTHTLRLQKLHELGWSREETTQIRAPVGIFPKARDAHTLALSVLAEVASVRLHQEEDSCLPPSS
notes: PaoD, XdhC-like molecular chaperone of the periplasmic aldehyde oxidoreductase PaoABC, last gene of the paoABCD operon of Escherichia coli; calculated mass 34.8 kDa; the tag is inferred from the Ni-TED column and imidazole elution; also called molecular chaperone PaoD; E. coli PaoD; source: E. coli BL21(DE3), plasmid pMN87, purified (Ni-TED chromatography)

What was measured:
PaoD [1] = biological target: T1, PaoD (Escherichia coli, UniProt P77183); experiment: ultrafiltration, bound cofactor oxidized to Form A, HPLC fluorescence; format: binding; details: 12 µM PaoD, 0-48 µM cofactor, 100 mM Tris-HCl, 300 mM NaCl, pH 7.2, 277 K
T1 construct: full length, expressed from plasmid pMN87 in E. coli BL21(DE3), Ni-TED purified (tag not described); dimer in solution
T1 sequence (P77183 1-318): B1 chain

PaoD [2] = biological target: T1, PaoD; experiment: STD-NMR; format: binding; details: ca 30 µM PaoD, 3 mM ionic liquid, 50 mM Tris-HCl, 1 mM EDTA, 300 mM NaCl, pH 8.0, 310 K; signals from cation ring protons; weak surface interaction
[3] = biological target: the molecule itself; experiment: SEC; freshly purified PaoD on Superdex 75 HR10/30, 50 mM Tris-HCl, 300 mM NaCl, pH 8.0, 283 K, 0.5 mL/min; column calibrated with Bio-Rad standards

Row | Molecule | STD-NMR (PaoD [2]) | further results
1 | Nc1nc2c(c(=O)[nH]1)N[C@H]1C(S)=C(S)[C@@H](COP(=O)(O)O)O[C@H]1N2 [MPT] | – | ultrafiltration, bound cofactor oxidized to Form A, HPLC fluorescence (PaoD [1]): The obtained chromatograms showed that Mo-MPT and MPT was bound to PaoD
2 | C[n+]1ccn(CCO)c1 [[C2OHmim]PF6] | aromatic protons of the cation were detected both for [C2OHmim]PF6 and [C4mim]Cl | –
3 | CCCC[n+]1ccn(C)c1 [[C4mim]Cl] | aromatic protons of the cation were detected both for [C2OHmim]PF6 and [C4mim]Cl | –
4 | B1 | – | stoichiometry N [3]: 2 and 4
